From patent publication US7759083B2, “Screening method for a growth inhibitor or promoter of a vascular smooth muscle cell” (Shionogi & Co., Ltd., priority 2004, dated 2010)

Assays:
[1] = test system: TAT reactive rat vascular smooth muscle cell clones; test: Cell proliferation potency by TAT after GPC3 knockdown with shRNA adenovirus ([methyl 3H] thymidine uptake); type: cell-based; settings: adenovirus infection at MOI=10; compared to cells infected GFPi or LacZ used as a control; FIG. 3
Protocol: Adenovirus carrying GFPi or GPC3i was added to cells on a 10 cm laboratory dish at infectious MOI=10 to infect. The cells were moved on a 24-well plate 1 day after infection and cultured under the absence of blood serum for 24 hours. After that, thymidine taken in cells by the stimulus of TAT was measured.
Each of adenovirus inserted shRNA of Glypican 3 (GPC3) (GPC3i), adenovirus inserted shRNA of Green fluorescent protein (GFP) (GFPi) and adenovirus not inserted shRNA (LacZ) was infected to TAT reactive rat vascular smooth muscle cell clones. Cell proliferation potency by TAT was measured by uptake of [methyl 3H] thymidine according an experiment method.

[2] = test system: vascular smooth muscle cells; test: Proliferation reaction of vascular smooth muscle cells by human TAT ([methyl 3H] thymidine uptake); type: cell-based, rat; settings: serum-free; only some (TAT reactive) vascular smooth muscle cells respond
Protocol: Vascular smooth muscle cells were plated in a 96-well plate at a density of 2×10^3/well and cultured under the same condition as Example 1. After 3 days, the medium was changed with DMEM containing 0.05% bovine serum albumin. After culturing for one more day, the medium was changed again with new DMEM containing 0.05% bovine serum albumin and TAT was added thereto. After 20 hours from addition of TAT, 0.05 μCi/well [methyl 3H] thymidine was added thereto and the cells were cultured for 2 hours. After washing cells twice with 5% trichloroacetic acid, Super mix (PerkinElmer, Inc.) was added thereto and radioactivity derived from [methyl 3H] thymidine taken in cells was measured by Micro Beta (PerkinEimer, Inc.) (FIG. 1).

Substance	cell proliferation by stimulus of TAT [1]	proliferation of vascular smooth muscle cells [2]
GPC3i: adenovirus inserted shRNA of Glypican 3 (GPC3), sequence SEQ ID: 2 (guide GAACTACACCAATGCCATGTT)	remarkably decreased	
thrombin-antithrombin III complex [TAT]		proliferate some cells of vascular smooth muscle cells at very low concentration
